In patent US11840543B2, “Compounds and uses” (The University of Queensland, priority 2017, dated 2023):

Molecular target: T1, NLRP3 (Homo sapiens, UniProt Q96P20)
T1 construct: To generate HMDM, human monocytes are isolated from buffy coat blood; endogenous in cells; host or cells: human monocyte-derived macrophages (HMDM) from CD14+ buffy coat monocytes
Assay: HMDM NLRP3 inflammasome assay, IL-1β secretion (Table 2)
Type: cell-based
Conditions: human monocyte derived macrophages
Protocol: HMDM CELL CULTURE: To generate HMDM, human monocytes are isolated from buffy coat blood using Ficoll-Plaque Plus (GE Healthcare) and density centrifugation. CD14^+ cell selection is performed using MACS magnetic beads (Miltenyl Biotec). […] 91, p.
Medium is removed and replaced with serum free medium (SFM) containing test compound 30 min prior to NLRP3 stimulation. […] ATP can be sourced from Sigma Aldrich, nigericin and MSU from Invivogen and LeuLeu-Ome from Chem-Impex International.
MEASUREMENT OF IL-1β SECRETION: For ELISA assays cells are seeded in 96 well plates. Supernatants are removed and analysed using ELISA kits according to the manufacturer's instructions (DuoSet® R&D Systems, ReadySetGo!® eBioscience, BD OptEIA™, or Perkin Elmer AlphaLISA®).

T1 sequence (Q96P20 whole entry): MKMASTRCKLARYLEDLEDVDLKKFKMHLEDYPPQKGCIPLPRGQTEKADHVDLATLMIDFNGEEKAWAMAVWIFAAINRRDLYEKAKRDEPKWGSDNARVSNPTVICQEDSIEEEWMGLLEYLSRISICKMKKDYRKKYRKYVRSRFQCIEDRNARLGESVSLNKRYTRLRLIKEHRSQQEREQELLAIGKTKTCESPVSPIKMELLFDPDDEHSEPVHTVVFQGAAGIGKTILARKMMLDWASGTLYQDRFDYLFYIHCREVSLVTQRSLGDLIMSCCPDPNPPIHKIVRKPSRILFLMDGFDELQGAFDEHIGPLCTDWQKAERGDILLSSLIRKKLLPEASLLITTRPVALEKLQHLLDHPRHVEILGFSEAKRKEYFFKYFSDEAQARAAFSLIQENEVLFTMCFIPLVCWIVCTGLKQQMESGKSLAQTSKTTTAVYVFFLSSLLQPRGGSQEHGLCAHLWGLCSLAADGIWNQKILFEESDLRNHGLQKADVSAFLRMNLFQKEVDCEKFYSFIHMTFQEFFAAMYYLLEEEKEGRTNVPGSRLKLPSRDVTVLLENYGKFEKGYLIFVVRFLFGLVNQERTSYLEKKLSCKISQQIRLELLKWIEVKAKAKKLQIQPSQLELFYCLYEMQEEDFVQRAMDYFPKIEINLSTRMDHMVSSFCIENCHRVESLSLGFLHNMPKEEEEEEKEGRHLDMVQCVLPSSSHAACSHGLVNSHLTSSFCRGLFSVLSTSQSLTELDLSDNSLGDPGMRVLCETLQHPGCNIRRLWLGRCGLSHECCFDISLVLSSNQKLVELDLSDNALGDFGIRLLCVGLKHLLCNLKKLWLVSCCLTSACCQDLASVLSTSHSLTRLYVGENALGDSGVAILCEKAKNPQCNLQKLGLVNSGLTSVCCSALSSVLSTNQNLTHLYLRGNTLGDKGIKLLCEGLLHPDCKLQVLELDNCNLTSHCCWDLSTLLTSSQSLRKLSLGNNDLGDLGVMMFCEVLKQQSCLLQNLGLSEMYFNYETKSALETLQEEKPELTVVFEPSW

Row | Compound | IC50 [nM]
1 | C#CCNC(=O)CCc1ccc(S(=O)(=O)NC(=O)Nc2c3c(cc4c2CCC4)CCC3)cc1 [Example 13, 3-(4-(N-((1,2,3,5,6,7-Hexahydro-s-indacen-4-yl)carbamoyl)sulfamoyl)-phenyl)-N-(prop-2-yn-1-yl)propanamide] | < 1000
2 | O=C(Nc1c2c(cc3c1CCC3)CCC2)NS(=O)(=O)c1cccc(C(=O)O)c1 [Example 10, 3-(N-((1,2,3,5,6,7-Hexahydro-s-indacen-4-yl)carbamoyl)sulfamoyl)-benzoic acid] | < 1000

System: MIN6 cells
Assay: MIN6 insulin assay (insulin secretion, radioimmunoassay)
Type: cell-based
Conditions: 10 μM test compound, 2.8 mM glucose KRB, 1 h; FIG. 1
Protocol: To confirm the insulinotropic properties of the compounds of the invention, their ability to stimulate insulin secretion from MIN6 cells at a single concentration (10 μM) was tested using the following protocol. The tests were conducted by the Garvan Institute of Medical Research, Sydney, Australia.
MIN6 INSULIN ASSAY PROTOCOL: MIN6 cells (passage 29-37) were incubated for 1 h in Krebs-Ringer buffer (KRB) containing 2.8 mM glucose. The cells were then stimulated for 1 h in either 2.8 mM glucose KRB, 20 mM glucose KRB, or 2.8 mM glucose KRB plus test compound. Supernatants were collected and then assayed using rat insulin radioimmunoassay kit (RI-13K, Merck Millipore).

Row | Compound | insulin secretion from MIN6 cells
3 | CC(C)(O)c1coc(S(=O)(=O)NC(=O)Nc2c3c(cc4c2CCC4)CCC3)c1 [CE7, MCC 950] | basal levels of insulin secretion

Molecular target: T2, NLRP3 (Mus musculus, UniProt Q8R4B8)
T2 construct: Macrophages from C57BL/6 mice were differentiated from bone marrow; endogenous in cells; host or cells: primary bone marrow-derived macrophages (BMDM) from C57BL/6 mice
Assay: NLRP3 inflammasome assay: IL-1β secretion from LPS-primed, ATP-stimulated murine BMDM (Table 1)
Type: cell-based, murine (C57BL/6 mice)
Conditions: ATP 2.5 mM 1 h, ELISA, read-out: IC50 (NLRP3 inhibitory activity)
Protocol: The NLRP3-inhibitory effect of a number of the above compounds was tested by measuring the IL-1β secretion from murine bone marrow derived macrophages (BMDM) primed with lipopolysaccharide (LPS), treated with test compound (to a maximum concentration of 200 μM) and finally stimulated with the NLRP3 stimulus ATP. The half-maximal inhibitory concentration (IC50) was determined for each compound and compared to a number of comparative examples (CE 1-10) including commercially available oral sulphonylureas (CE1-6) and the known NLRP3 inhibitor MCC 950 (CE7). The experimental protocol was as follows.
The University of Queensland Animal Ethics Committee approved all experimental protocols involving mice.
NLRP3 INFLAMMASOME ASSAY: BMDM were seeded at 1×10^6 cells/mL in 96 well plates. The following day the overnight medium was replaced with Opti-MEM® reduced serum medium (Life Technologies) and cells were stimulated with 100 ng/mL ultrapure E. coli K12 LPS (Invivogen) for 3 h. Compounds were prepared from a 10 mM stock by serial dilution in 80% DMSO/20% 10 mM ammonium bicarbonate. […] IL-1β levels in cell-free supernatants were analysed by ELISA (ReadySetGo!® eBioscience).

T2 sequence (Q8R4B8 whole entry): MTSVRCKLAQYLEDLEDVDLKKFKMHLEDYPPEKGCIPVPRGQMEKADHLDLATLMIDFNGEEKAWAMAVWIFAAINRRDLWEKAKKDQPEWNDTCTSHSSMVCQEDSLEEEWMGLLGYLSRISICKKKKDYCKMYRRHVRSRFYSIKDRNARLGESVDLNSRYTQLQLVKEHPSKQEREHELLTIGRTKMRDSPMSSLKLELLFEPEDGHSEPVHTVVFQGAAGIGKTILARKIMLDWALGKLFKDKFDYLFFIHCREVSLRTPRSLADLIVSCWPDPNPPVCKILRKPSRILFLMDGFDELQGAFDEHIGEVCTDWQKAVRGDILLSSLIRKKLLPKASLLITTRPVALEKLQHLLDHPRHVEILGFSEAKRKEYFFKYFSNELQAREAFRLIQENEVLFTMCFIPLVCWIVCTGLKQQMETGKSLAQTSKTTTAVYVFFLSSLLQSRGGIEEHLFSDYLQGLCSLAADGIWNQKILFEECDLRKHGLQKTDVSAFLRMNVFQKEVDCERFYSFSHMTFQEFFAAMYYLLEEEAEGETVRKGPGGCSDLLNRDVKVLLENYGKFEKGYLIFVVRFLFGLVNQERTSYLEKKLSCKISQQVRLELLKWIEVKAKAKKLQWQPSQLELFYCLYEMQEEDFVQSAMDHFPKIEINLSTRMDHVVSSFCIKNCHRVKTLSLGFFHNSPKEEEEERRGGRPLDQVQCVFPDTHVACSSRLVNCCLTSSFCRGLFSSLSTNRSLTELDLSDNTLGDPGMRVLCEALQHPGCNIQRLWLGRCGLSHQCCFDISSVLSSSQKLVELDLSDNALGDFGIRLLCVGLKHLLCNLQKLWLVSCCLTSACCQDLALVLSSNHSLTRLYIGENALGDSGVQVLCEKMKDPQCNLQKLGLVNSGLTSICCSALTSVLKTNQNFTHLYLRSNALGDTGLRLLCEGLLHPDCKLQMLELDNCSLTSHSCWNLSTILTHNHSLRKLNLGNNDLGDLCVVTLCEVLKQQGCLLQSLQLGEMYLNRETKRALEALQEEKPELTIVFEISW

Row | Compound | IC50 [nM]
4 | O=C(Nc1c2c(cc3c1CCC3)CCC2)NS(=O)(=O)c1ccc([N+](=O)[O-])cc1 [CE10] | < 1000
5 | CC(=O)c1ccc(S(=O)(=O)NC(=O)NC2CCCCC2)cc1 [CE1, Acetohexamide] | > 200000
6 | CCC1=C(C)CN(C(=O)NCCc2ccc(S(=O)(=O)NC(=O)N[C@H]3CC[C@H](C)CC3)cc2)C1=O [CE6, Glimepiride] | > 50000
7 | Cc1cnc(C(=O)NCCc2ccc(S(=O)(=O)NC(=O)NC3CCCCC3)cc2)cn1 [CE3, Glipizide] | > 200000
8 | Nc1ccc(S(=O)(=O)NC(=O)Nc2c3c(cc4c2CCC4)CCC3)cc1 [CE8] | < 1000
9 | CC(=O)c1ccc(S(=O)(=O)NC(=O)Nc2c3c(cc4c2CCC4)CCC3)cc1 [Example 1, 4-Acetyl-N-((1,2,3,5,6,7-hexahydro-s-indacen-4-yl)carbamoyl) benzenesulfonamide] | < 1000
10 | O=C(Nc1c2c(cc3c1CCC3)CCC2)NS(=O)(=O)c1ccc2c(c1)CCC2 [CE9] | < 1000
11 | COc1ccc2c(c1)C(=O)N(CCc1ccc(S(=O)(=O)NC(=O)NC3CCCCC3)cc1)C(=O)C2(C)C [CE5, Gliquidone] | > 50000
12 | Cc1cnc(C(=O)NCCc2ccc(S(=O)(=O)NC(=O)Nc3c4c(cc5c3CCC5)CCC4)cc2)cn1 [Example 3, N-(4-(N-((1,2,3,5,6,7-Hexahydro-s-indacen-4-yl)carbamoyl)sulfamoyl)phenethyl)-5-methylpyrazine-2-carboxamide] | < 1000
13 | Cc1cc(C(=O)NCCc2ccc(S(=O)(=O)NC(=O)NN3CCCCCC3)cc2)no1 [CE4, Glisoxepide] | > 50000
